The record followed here is ChEMBL document CHEMBL1124152, “Conformationally constrained renin inhibitory peptides: gamma-lactam-bridged dipeptide isostere as conformational restriction” (J Med Chem, 1988).

Structures are written as SMILES.

One test concerns the target T1, Renin (Homo sapiens, UniProt P00797).
T1 sequence (P00797 whole entry): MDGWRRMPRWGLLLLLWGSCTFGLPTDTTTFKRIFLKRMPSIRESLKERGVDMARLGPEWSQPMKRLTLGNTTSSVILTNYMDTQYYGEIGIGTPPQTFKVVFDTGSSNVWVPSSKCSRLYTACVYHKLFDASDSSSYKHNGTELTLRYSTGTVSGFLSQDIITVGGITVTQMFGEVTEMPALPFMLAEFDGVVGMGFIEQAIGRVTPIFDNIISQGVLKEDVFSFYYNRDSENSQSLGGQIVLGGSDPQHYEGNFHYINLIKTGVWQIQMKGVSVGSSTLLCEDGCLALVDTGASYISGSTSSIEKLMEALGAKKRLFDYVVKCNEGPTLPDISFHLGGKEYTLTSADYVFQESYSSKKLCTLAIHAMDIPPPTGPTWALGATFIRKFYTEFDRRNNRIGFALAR
Nature of the test: Inhibitory activity against human plasma renin. The test is classed as cell-free.
As to `CCCC[C@H](NC(=O)[C@H](Cc1ccccc1)NC(=O)OCc1ccccc1)C(=O)N[C@@H](CC(C)C)[C@@H](O)C[C@H](C(=O)N[C@H](C(=O)NCc1ccccn1)[C@H](C)CC)C(C)C`, inhibition was half-maximal at 0.026 µM (IC50).
Same read-out and setting: the value for `CCCC[C@H](NC(=O)CCc1ccccc1)C(=O)N[C@@H](CC(C)C)[C@@H](O)CC(=O)N[C@H](C(=O)NCc1ccccn1)[C@H](C)CC` was 0.35 µM.
`CCCC[C@@H](C(=O)N[C@@H](CC(C)C)[C@@H](O)C[C@H](C(=O)N[C@H](C(=O)NCc1ccccn1)[C@@H](C)CC)C(C)C)N1CCC(Cc2ccccc2)C1=O` (stereo in doubt; form 1) came in with an IC50 of 0.027 µM.
The same measure, in the same setting: in the case of `CCCC[C@@H](C(=O)N[C@@H](CC(C)C)[C@@H](O)C[C@H](C(=O)N[C@H](C(=O)NCc1ccccn1)[C@H](C)CC)C(C)C)N1CCC(Cc2ccccc2)(NC(=O)OCc2ccccc2)C1=O` (stereo in doubt; form 2) it was 0.0065 µM; in that of `CCCC[C@@H](C(=O)N[C@@H](CC(C)C)[C@@H](O)C[C@H](C(=O)N[C@H](C(=O)NCc1ccccn1)[C@H](C)CC)C(C)C)N1CCC(Cc2ccccc2)(NC(=O)OCc2ccccc2)C1=O` (stereo in doubt; form 1), 0.0065 µM; in that of `CCCC[C@H](NC(=O)CCc1ccccc1)C(=O)N[C@@H](CC(C)C)[C@@H](O)C[C@H](C(=O)N[C@H](C(=O)NCc1ccccn1)[C@H](C)CC)C(C)C`, 0.12 µM.
With `CCCC[C@@H](C(=O)N[C@@H](CC(C)C)[C@@H](O)C[C@H](C(=O)N[C@H](C(=O)NCc1ccccn1)[C@@H](C)CC)C(C)C)N1CCC(Cc2ccccc2)C1=O` (stereo in doubt; form 2), half-maximal inhibition (IC50) required 0.014 µM.

A further test concerns the target T2, Renin (Homo sapiens) (UniProt P00797).
T2 sequence (whole entry): T1 sequence (P00797 whole entry)
Description: Inhibitory activity against human plasma renin at 10e-5 M. The class given is cell-free.
For the compound `CCCC[C@@H](C(=O)N[C@@H](CC(C)C)[C@@H](O)CC(=O)N[C@H](C(=O)NCc1ccccn1)[C@H](C)CC)N1CCC(Cc2ccccc2)C1=O` (stereo in doubt; form 1), the inhibition is 46%.
The compound `CCCC[C@@H](C(=O)N[C@@H](CC(C)C)[C@@H](O)CC(=O)N[C@H](C(=O)NCc1ccccn1)[C@H](C)CC)N1CCC(Cc2ccccc2)C1=O` (stereo in doubt; form 2) came in with an inhibition of 46%.
